Test results as given in ChEMBL document CHEMBL4342430, “An Agonist Radioligand for the Proinflammatory Lipid-Activated G Protein-Coupled Receptor GPR84 Providing Structural Insights” (J Med Chem, 2020).
Blank lines part the entries; values can stand above or below the compound they belong to. Activity calls are given as the source filed them. No cut-off for these calls is given here.

Tests used:
[1] = target: T1, G-protein coupled receptor 84 (Homo sapiens, UniProt Q9NQS5); assay: Displacement of [3H]PSB-1584 from recombinant human GPR84 expressed in CHO cell membranes co-expressing beta-arrestin2 measured after 6 hrs by scintillation counting method
[2] = target: T1, G-protein coupled receptor 84; assay: Displacement of [3H]PSB-1584 from recombinant human GPR84 expressed in CHO cell membranes co-expressing beta-arrestin2 at 100 uM measured after 6 hrs by scintillation counting method relative to control
[3] = target: T1, G-protein coupled receptor 84; assay: Positive allosteric modulation of recombinant human GPR84 expressed in CHO cell membranes co-expressing beta-arrestin2 assessed as increase in [3H]PSB-1584 binding measured after 6 hrs by scintillation counting method relative to control
[4] = target: T1, G-protein coupled receptor 84; assay: Positive allosteric modulation of recombinant human GPR84 expressed in CHO cell membranes co-expressing beta-arrestin2 assessed as increase in [3H]PSB-1584 binding measured after 6 hrs by scintillation counting method
[5] = target: T1, G-protein coupled receptor 84; assay: Selectivity ratio of EC50 for agonist activity at recombinant human GPR84 expressed in CHO cell membranes co-expressing beta-arrestin2 assessed as inhibition of forskolin-stimulated [3H]cAMP accumulation to Ki for displacement of [3H]PSB-1584 from recombinant human GPR84 expressed in CHO cell membranes co-expressing beta-arrestin2; format: functional
[6] = target: T1, G-protein coupled receptor 84; assay: Agonist activity at recombinant human GPR84 expressed in CHO cell membranes co-expressing beta-arrestin2 assessed as inhibition of forskolin-stimulated [3H]cAMP accumulation preincubated for 5 mins followed by forskolin stimulation and measured after 15 mins by radioactive assay; format: functional, cell-based
[7] = target: T1, G-protein coupled receptor 84; assay: Agonist activity at recombinant human GPR84 expressed in CHO cell membranes co-expressing beta-arrestin2 assessed as beta-arrestin 2 recruitment measured after 90 mins by beta-galactosidase based PathHunter assay
Rattus norvegicus [8] = species on record: Rattus norvegicus; assay: Displacement of [3H]PSB-1584 from GPR84 in rat brain cortex membranes measured after 6 hrs by scintillation counting method; format: cell membranes
Rattus norvegicus [9] = species on record: Rattus norvegicus; assay: Displacement of [3H]PSB-1584 from GPR84 in rat brain striatum membranes measured after 6 hrs by scintillation counting method; format: cell membranes
[10] = target: G-protein coupled receptor 84 (Mus musculus) (UniProt Q8CIM5); assay: Displacement of [3H]PSB-1584 from GPR84 in mouse liver membranes measured after 6 hrs by scintillation counting method; format: cell membranes
Rattus norvegicus [11] = species on record: Rattus norvegicus; assay: Displacement of [3H]PSB-1584 from GPR84 in rat liver membranes measured after 6 hrs by scintillation counting method; format: cell membranes

T1 sequence (Q9NQS5 whole entry): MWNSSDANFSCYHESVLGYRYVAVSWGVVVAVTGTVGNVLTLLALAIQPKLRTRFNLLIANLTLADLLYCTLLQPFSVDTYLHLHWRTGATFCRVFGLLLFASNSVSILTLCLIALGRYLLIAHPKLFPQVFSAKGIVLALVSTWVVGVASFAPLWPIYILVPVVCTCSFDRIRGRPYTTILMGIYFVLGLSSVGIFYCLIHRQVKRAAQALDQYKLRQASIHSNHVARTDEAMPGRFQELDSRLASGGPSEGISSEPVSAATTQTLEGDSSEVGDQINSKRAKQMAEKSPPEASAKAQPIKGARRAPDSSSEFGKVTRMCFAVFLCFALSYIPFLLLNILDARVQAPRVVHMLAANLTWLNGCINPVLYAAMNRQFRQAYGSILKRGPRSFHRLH
Chain of G-protein coupled receptor 84 (Mus musculus) (Q8CIM5 whole entry): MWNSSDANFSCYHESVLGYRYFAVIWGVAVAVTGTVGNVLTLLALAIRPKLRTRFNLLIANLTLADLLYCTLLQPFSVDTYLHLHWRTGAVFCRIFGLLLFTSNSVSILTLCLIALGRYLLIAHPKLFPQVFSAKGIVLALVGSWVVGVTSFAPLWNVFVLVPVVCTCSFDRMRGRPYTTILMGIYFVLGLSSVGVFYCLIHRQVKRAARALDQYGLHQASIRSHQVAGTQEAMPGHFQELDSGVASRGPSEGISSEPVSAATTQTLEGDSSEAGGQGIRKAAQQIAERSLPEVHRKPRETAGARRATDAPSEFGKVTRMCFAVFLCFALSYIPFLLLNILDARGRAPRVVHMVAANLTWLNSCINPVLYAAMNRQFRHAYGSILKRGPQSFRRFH

Ki [1]: 18.7 nM
SMILES: O=c1cc(N2CCC(Cc3ccccc3)CC2)[nH]c(=O)[nH]1

EC50 [6]: 9610 nM
EC50 [7]: 1700 nM
Ki [1]: 1930 nM
SMILES: CCCCCCCCCCCCC(=O)O [TRIDECANOATE]

Ki [1]: 2.1 nM
SMILES: O=c1cc(NCCCOc2ccccc2)[nH]c(=O)[nH]1

Ki [1]: 37 nM
SMILES: CCCCCCCCNc1[nH]c(=O)[nH]c(=O)c1N=O

%max [3]: 67%
EC50 [4]: 83.6 nM
SMILES: Fc1ccc2[nH]cc(Cc3c[nH]c4ccc(F)c(F)c34)c2c1F

Ki [1]: 11.4 nM
SMILES: O=c1cc(NCCc2ccc(F)cc2)[nH]c(=O)[nH]1

Ki [1]: 36 nM
SMILES: O=c1cc(NCCc2ccccc2Cl)[nH]c(=O)[nH]1

Ki [1]: 3.6 nM
SMILES: CCCCCCCCN(C)c1cc(=O)[nH]c(=O)[nH]1

Ki [1]: 1210 nM
SMILES: CCCCCCOC(=O)c1cc(=O)[nH]c(=O)[nH]1

Ki [1]: 35.6 nM
SMILES: O=c1cc(NCCc2ccccc2F)[nH]c(=O)[nH]1

IC50 [1]: 43700 nM
SMILES: Clc1ccc2c(Cc3c[nH]c4cc(Cl)ccc34)c[nH]c2c1

%max [3]: 69%
EC50 [4]: 59.1 nM
Selectivity ratio [5]: 58
SMILES: Brc1ccc2[nH]cc(Cc3c[nH]c4ccc(Br)cc34)c2c1

Ki [1]: 145 nM
SMILES: CCCCCCSc1nc(O)cc(C(=O)O)n1

IC50 [1]: 22400 nM
SMILES: CCCC(c1c[nH]c2ccccc12)c1c[nH]c2ccccc12

Ki [1]: 1.25 nM
SMILES: Cc1ccc(CCNc2cc(=O)[nH]c(=O)[nH]2)cc1

Ki [1]: 469 nM
SMILES: CCCCCCNC(=O)c1cc(=O)[nH]c(=O)[nH]1

EC50 [6]: 1750 nM
EC50 [7]: 452 nM
Ki [1]: 472 nM
SMILES: CCCCCCCCCCC[C@@H](O)CC(=O)O

Ki [1]: 1.27 nM
SMILES: CC(C)(C)c1ccc(CCNc2cc(=O)[nH]c(=O)[nH]2)cc1

inhibition [2]: 9%
Ki [1]: > 10000 nM
SMILES: CCCCCCSc1nc(O)cc(C(=O)OC)n1

%max [3]: 57%
EC50 [4]: 302 nM
SMILES: Fc1ccc2c(Cc3c[nH]c4cc(F)ccc34)c[nH]c2c1

%max [3]: 153%
EC50 [4]: 61.8 nM
SMILES: Fc1cccc2c(Cc3c[nH]c4c(F)cccc34)c[nH]c12

Ki [1]: 3470 nM
SMILES: CCCCCCSc1nccc(O)n1

Ki [1]: 91 nM
SMILES: CCCCCNc1cc(=O)[nH]c(=O)[nH]1

Ki [1]: 3.99 nM
SMILES: O=c1cc(NCCc2cccc(Br)c2)[nH]c(=O)[nH]1

Ki [1]: 49.4 nM
SMILES: O=c1cc(NCCc2cccs2)[nH]c(=O)[nH]1

Ki [1]: 3.17 nM
SMILES: O=c1cc(O)nc(SCCc2ccc(Br)cc2)[nH]1

%max [3]: 53%
EC50 [4]: 495 nM
SMILES: COc1ccc2[nH]cc(Cc3c[nH]c4ccccc34)c2c1

Ki [1]: 0.582 nM
SMILES: CCc1ccc(CCNc2cc(=O)[nH]c(=O)[nH]2)cc1

EC50 [7]: 3490 nM
Ki [1]: 2170 nM
SMILES: CCCCCCCCCCCC(=O)O [DODECANOATE]

IC50 [1]: 14000 nM
SMILES: Cn1cc(Cc2cn(C)c3ccccc23)c2ccccc21

%max [3]: 56%
EC50 [4]: 1520 nM
SMILES: Fc1cccc2[nH]cc(Cc3c[nH]c4cccc(F)c34)c12

EC50 [6]: 3860 nM
EC50 [7]: 4360 nM
Ki [1]: 318 nM
SMILES: CCCCCCCCCCCCC(O)C(=O)O (racemic)

EC50 [6]: > 100000 nM
EC50 [7]: > 100000 nM
Ki [1]: 19600 nM
SMILES: CCCCCCCC(=O)O [OCTANOIC ACID]

Ki [1]: 0.324 nM
SMILES: Oc1cc(O)nc(SCCCCc2ccccc2)n1

Ki [1]: 189 nM
SMILES: O=Nc1c(NCCCc2ccccc2)[nH]c(=O)[nH]c1=O

Ki [1]: 0.866 nM
SMILES: CCCCCCCNc1cc(=O)[nH]c(=O)[nH]1

Ki [1]: 2.63 nM
SMILES: O=c1cc(O)nc(SCCc2ccc(Cl)cc2)[nH]1

inhibition [2]: 51%
Ki [1]: ≥ 100000 nM
SMILES: CCCCCCSc1nc(O)cc(CCC)n1

%max [3]: 59%
EC50 [4]: 1930 nM
SMILES: O=C(c1c[nH]c2ccccc12)c1c[nH]c2ccccc12

Ki [1]: 3.28 nM
SMILES: Cc1ccc(CCSc2nc(O)cc(=O)[nH]2)cc1

Ki [1]: 62.7 nM
SMILES: O=c1cc(N2CCN(Cc3cccc4ccccc34)CC2)[nH]c(=O)[nH]1

Ki [1]: 6.94 nM
SMILES: CCCCCCN(C)c1cc(=O)[nH]c(=O)[nH]1

Continued, compound first:

SMILES: CCCCCCCCCNC(=O)c1cc(=O)[nH]c(=O)[nH]1
inhibition [2]: 26%
Ki [1]: > 10000 nM

SMILES: Fc1cc2c(Cc3c[nH]c4cc(Cl)c(F)cc34)c[nH]c2cc1Cl
%max [3]: 36%
EC50 [4]: 129 nM
Selectivity ratio [5]: 84

SMILES: CCCCCCC(O)C(=O)O (racemic)
EC50 [6]: > 100000 nM
inhibition [2]: 50%
EC50 [7]: > 100000 nM
Ki [1]: 100000 nM

SMILES: O=c1cc(N2CCN(c3ccc(Cl)cc3)CC2)[nH]c(=O)[nH]1
Ki [1]: 44.4 nM

SMILES: CCCCCCCC(O)CC(=O)O (racemic)
EC50 [6]: 31800 nM
EC50 [7]: 4050 nM
Ki [1]: 3310 nM

SMILES: CCCCCCNc1[nH]c(=O)[nH]c(=O)c1Br
Ki [1]: 225 nM

SMILES: CCCCOC(=O)c1cc(O)nc(O)n1
inhibition [2]: -3%
Ki [1]: > 10000 nM

SMILES: O=c1cc(NCCc2cccc(Cl)c2)[nH]c(=O)[nH]1
Ki [1]: 4.75 nM

SMILES: O=c1cc(N2CCN(C3CCc4ccccc43)CC2)[nH]c(=O)[nH]1 (centres undefined)
Ki [1]: 14.7 nM

SMILES: O=c1cc(NCCc2cccc(F)c2)[nH]c(=O)[nH]1
Ki [1]: 9.48 nM

SMILES: COc1ccc2[nH]cc(Cc3c[nH]c4ccc(OC)cc34)c2c1
%max [3]: 46%
EC50 [4]: 103 nM

SMILES: O=c1cc(NCCCCCCCO)[nH]c(=O)[nH]1
Ki [1]: 267 nM

SMILES: O=c1cc(O)nc(SCCc2ccc(C(F)(F)F)cc2)[nH]1
Ki [1]: 36.7 nM

SMILES: Fc1cc(F)c2[nH]cc(Cc3c[nH]c4c(F)cc(F)cc34)c2c1
%max [3]: 87%

SMILES: CCCCCNC(=O)c1cc(=O)[nH]c(=O)[nH]1
Ki [1]: 1560 nM

SMILES: Oc1cc(NCCc2ccccc2)nc(O)n1
Ki [1]: 10.8 nM

SMILES: CCCCCCCCCCNc1cc(O)nc(O)n1
Ki [1]: 0.726 nM

SMILES: CCCCCCCCCNc1cc(=O)[nH]c(=O)[nH]1
Ki [1]: 1.12 nM

SMILES: O=C(O)CCCCCCCCCCCO
EC50 [6]: > 100000 nM
inhibition [2]: 5%
EC50 [7]: > 100000 nM
Ki [1]: > 10000 nM

SMILES: c1ccc2c(Cc3c[nH]c4ccccc34)c[nH]c2c1
%max [3]: < 100%
Activity [4]: Dose-dependent effect
inhibition [1]: inactive

SMILES: O=c1cc(NCCc2ccc(Br)cc2)[nH]c(=O)[nH]1
inhibition (Rattus norvegicus [8]): Active
inhibition (Rattus norvegicus [9]): Active
inhibition [10]: Active
inhibition (Rattus norvegicus [11]): Active

SMILES: O=c1cc(NCCc2ccc(Cl)cc2Cl)[nH]c(=O)[nH]1
Ki [1]: 2.3 nM

SMILES: Fc1ccc2[nH]cc(Cc3c[nH]c4ccc(F)cc34)c2c1
%max [3]: 125%
EC50 [4]: 199 nM

SMILES: Oc1cc(O)nc(SCCCc2ccccc2)n1
Ki [1]: 0.7 nM

SMILES: CCCCCCSc1nc(C)cc(O)n1
Ki [1]: 3630 nM

SMILES: CCCCCCCCCC(O)CC(=O)O (racemic)
EC50 [7]: 3250 nM
Ki [1]: 110 nM

SMILES: Fc1ccc2[nH]cc(Cc3c[nH]c4ccccc34)c2c1
%max [3]: 55%

SMILES: CCCCCCCNc1[nH]c(=O)[nH]c(=O)c1N=O
Ki [1]: 58.6 nM

SMILES: CCCCCCCCNC(=O)c1cc(=O)[nH]c(=O)[nH]1
inhibition [2]: 12%
Ki [1]: > 10000 nM

SMILES: Clc1cccc2[nH]cc(Cc3c[nH]c4cccc(Cl)c34)c12
%max [3]: 94%
EC50 [4]: 175 nM

SMILES: O=c1cc(O)nc(SCCc2ccc(F)cc2)[nH]1
Ki [1]: 3.77 nM

SMILES: Fc1cc2[nH]cc(Cc3c[nH]c4cc(F)c(F)cc34)c2cc1F
%max [3]: 55%
EC50 [4]: 52.4 nM

SMILES: CCCCCCCCCCCC(O)CC(=O)O (racemic)
EC50 [6]: 1570 nM
EC50 [7]: 432 nM
Ki [1]: 511 nM

SMILES: CCCCCCCCNc1[nH]c(=O)[nH]c(=O)c1Br
Ki [1]: 34.7 nM

SMILES: Oc1cc(NCCCCc2ccccc2)nc(O)n1
Ki [1]: 0.58 nM

SMILES: O=c1cc(NCCOc2ccccc2)[nH]c(=O)[nH]1
Ki [1]: 3.12 nM

SMILES: O=c1cc(NCCc2c[nH]c3ccccc23)[nH]c(=O)[nH]1
Ki [1]: 497 nM

SMILES: O=C(NCCCc1ccccc1)c1cc(=O)[nH]c(=O)[nH]1
Ki [1]: 1590 nM

SMILES: CCC(c1c[nH]c2ccccc12)c1c[nH]c2ccccc12
IC50 [1]: 46300 nM

SMILES: CCC/C=C/CNc1cc(=O)[nH]c(=O)[nH]1
Ki [1]: 37.4 nM

SMILES: Clc1ccc2[nH]cc(Cc3c[nH]c4ccc(Cl)cc34)c2c1
%max [3]: 90%
EC50 [4]: 250 nM
Selectivity ratio [5]: 20
